Test results: US8460904B2, “Method of producing reduced coenzyme Q10” (Zhejiang Zhongning Business Co., Ltd., priority 2008, dated 2013)

Experiments:
[1] = Stability / shelf life of the obtained reduced coenzyme Q10; type: physicochemical
[2] = Water-solubility after phosphorylation; type: physicochemical; details: usable on injection

## COc1c(O)c(C)c(C/C=C(\C)CC/C=C(\C)CC/C=C(\C)CC/C=C(\C)CC/C=C(\C)CC/C=C(\C)CC/C=C(\C)CC/C=C(\C)CC/C=C(\C)CCC=C(C)C)c(O)c1OC [reduced coenzyme Q10]
[1]; below 50° C.
  shelf life: over 2 years
[1]; phosphoric acid solution of pH6.0-8.2
  stability in phosphoric acid solution: remains its qualities
[2]
  water-solubility: completely water soluble
